Data as given in patent US8143243B2, “Compounds for the treatment of hepatitis C” (Bristol-Myers Squibb Company, priority 2007, dated 2012).

Legend:
HCV NS5B = target: T1, HCV NS5B (Hepatitis C virus genotype 1b, UniProt Q9WMX2); assay: HCV NS5B RdRp enzyme assay (standard / modified); type: biochemical
T1 construct: The protein was expressed with an 18 amino acid C-terminal truncation to enhance the solubility; made in house; host or cells: E. coli BL21 (DE3)
Procedure: HCV NS5B RdRp cloning, expression, and purification. The cDNA encoding the NS5B protein of HCV, genotype 1b, was cloned into the pET21a expression vector. The protein was expressed with an 18 amino acid C-terminal truncation to enhance the solubility. The E. coli competent cell line BL21 (DE3) was used for expression of the protein. Cultures were grown at 37° C. for ˜4 hours until the cultures reached an optical density of 2.0 at 600 nm. The cultures were cooled to 20° C. and induced with 1 mM IPTG. Fresh ampicillin was added to a final concentration of 50 μg/ml and the cells were grown overnight at 20° C.
Cell pellets (3 L) were lysed for purification to yield 15-24 mgs of purified NS5B. The lysis buffer consisted of 20 mM Tris-HCl, pH 7.4, 500 mM NaCl, 0.5% triton X-100, 1 mM DTT, 1 mM EDTA, 20% glycerol, 0.5 mg/ml lysozyme, 10 mM MgCl2, 15 ug/ml deoxyribonuclease I, and Complete TM protease inhibitor tablets (Roche). After addition of the lysis buffer, frozen cell pellets were resuspended using a tissue homogenizer. To reduce the viscosity of the sample, aliquots of the lysate were sonicated on ice using a microtip attached to a Branson sonicator. The sonicated lysate was centrifuged at 100,000×g for 1 hr at 4° C. and filtered through a 0.2 μm filter unit (Corning).
The protein was purified using three sequential chromatography steps: Heparin sepharose CL-6B, polyU sepharose 4B, and Hitrap SP sepharose (Pharmacia). The chromatography buffers were identical to the lysis buffer but contained no lysozyme, deoxyribonuclease I, MgCl2 or protease inhibitor and the NaCl concentration of the buffer was adjusted according to the requirements for charging the protein onto the column. Each column was eluted with a NaCl gradient which varied in length from 5-50 column volumes depending on the column type. After the final chromatography step, the resulting purity of the enzyme is >90% based on SDS-PAGE analysis. The enzyme was aliquoted and stored at −80° C.
Standard HCV NS5B RdRp enzyme assay. HCV RdRp genotype 1b assays were run in a final volume of 60 μl in 96 well plates (Costar 3912). The assay buffer is composed of 20 mM Hepes, pH 7.5, 2.5 mM KCl, 2.5 mM MgCl2, 1 mM DTT, 1.6 U RNAse inhibitor (Promega N2515), 0.1 mg/ml BSA (Promega R3961), and 2% glycerol. All compounds were serially diluted (3-fold) in DMSO and diluted further in water such that the final concentration of DMSO in the assay was 2%. HCV RdRp genotype 1b enzyme was used at a final concentration of 28 nM. A polyA template was used at 6 nM, and a biotinylated oligo-dT12 primer was used at 180 nM final concentration. Template was obtained commercially (Amersham 27-4110). Biotinylated primer was prepared by Sigma Genosys. 3H-UTP was used at 0.6 μCi (0.29 μM total UTP). Reactions were initiated by the addition of enzyme, incubated at 30° C. for 60 min, and stopped by adding 25 μl of 50 mM EDTA containing SPA beads (4 μg/μl, Amersham RPNQ 0007). Plates were read on a Packard Top Count NXT after >1 hr incubation at room temperature.
Modified HCV NS5B RdRp enzyme assay. A modified enzyme assay was performed essentially as described for the standard enzyme assay except for the following: The biotinylated oligo dT12 primer was precaptured on streptavidin-coated SPA beads by mixing primer and beads in assay buffer and incubating at room temperature for one hour. Unbound primer was removed after centrifugation. The primer-bound beads were resuspended in 20 mM Hepes buffer, pH 7.5 and used in the assay at final concentrations of 20 nM primer and 0.67 μg/μl beads. Order of addition in the assay: enzyme (14 nM) was added to diluted compound followed by the addition of a mixture of template (0.2 nM), 3H-UTP (0.6 μCi, 0.29 μM), and primer-bound beads, to initiate the reaction; concentrations given are final. Reactions were allowed to proceed for 4 hours at 30° C.
IC50 values for compounds were determined using seven different [I]. […]

HCV replicon cells = assay: HCV replicon FRET / luciferase assay; type: cell-based; details: Hepatitis C virus
From the text: FRET Assay Preparation. To perform the HCV FRET screening assay, 96-well cell culture plates were used. The FRET peptide (Anaspec, Inc.) (Taliani et al., Anal. Biochem. 1996, 240, 60-67) contains a fluorescence donor, EDANS, near one end of the peptide and an acceptor, DABCYL, near the other end. The fluorescence of the peptide is quenched by […] resonance energy transfer (RET) between the donor and the acceptor, but as the NS3 protease cleaves the peptide the products are released from RET quenching and the fluorescence of the donor becomes apparent. The assay reagent was made as follows: 5× cell Luciferase cell culture lysis reagent from Promega (#E153A) diluted to 1× with dH2O, NaCl added to 150 mM final, the FRET peptide diluted to 20 μM final from a 2 mM stock.
To prepare plates, HCV replicon cells, with or without a Renilla luciferase reporter gene, were trypsinized and placed into each well of a 96-well plate with titrated test compounds added in columns 3 through 12; columns 1 and 2 contained a control compound (HCV protease inhibitor), and the bottom row contained cells without compound. The plates were then placed in a CO2 incubator at 37° C.
Assays. Subsequent to addition of the test compounds described above (FRET Assay Preparation), at various times the plate was removed and Alamar blue solution (Trek Diagnostics, #00-100) was added per well as a measure of cellular toxicity. After reading in a Cytoflour 4000 instrument (PE Biosystems), plates were rinsed with PBS and then used for FRET assay by the addition of 30 ul of the FRET peptide assay reagent described above (FRET Assay Preparation) per well. The plate was then placed into the Cytoflour 4000 instrument which had been set to 340 excite/490 emission, automatic mode for 20 cycles and the plate read in a kinetic mode. Typically, the signal to noise using an endpoint analysis after the reads was at least three-fold. Alternatively, after Alamar blue reading, plates were rinsed with PBS, 50 ul of DMEM (high glucose) without phenol red was added and plates were then used for luciferase assay using the Promega Dual-Glo Luciferase Assay System.
Compound analysis was determined by quantification of the relative HCV replicon inhibition and the relative cytotoxicity values. To calculate cytoxicity values, the average Alamar Blue fluorescence signals from the control wells were set as 100% non-toxic. The individual signals in each of the compound test wells were then divided by the average control signal and multiplied by 100% to determine […]. To calculate the HCV replicon inhibition values, an average background value was obtained from the two wells containing the highest amount of HCV protease inhibitor at the end of the assay period. These numbers were similar to those obtained from naïve Huh-7 cells.
The background numbers were then subtracted from the average signal obtained from the control wells and this number was used as 100% activity. The individual signals in each of the compound test wells were then divided by the averaged control values after background subtraction and multiplied by 100% to determine percent activity. EC50 values for a protease inhibitor titration were calculated as the concentration which caused a 50% reduction in FRET or luciferase activity. The two numbers generated for the compound plate, percent cytoxicity and percent activity were used to determine compounds of interest for further analysis.

T1 sequence (Q9WMX2 2420-2992): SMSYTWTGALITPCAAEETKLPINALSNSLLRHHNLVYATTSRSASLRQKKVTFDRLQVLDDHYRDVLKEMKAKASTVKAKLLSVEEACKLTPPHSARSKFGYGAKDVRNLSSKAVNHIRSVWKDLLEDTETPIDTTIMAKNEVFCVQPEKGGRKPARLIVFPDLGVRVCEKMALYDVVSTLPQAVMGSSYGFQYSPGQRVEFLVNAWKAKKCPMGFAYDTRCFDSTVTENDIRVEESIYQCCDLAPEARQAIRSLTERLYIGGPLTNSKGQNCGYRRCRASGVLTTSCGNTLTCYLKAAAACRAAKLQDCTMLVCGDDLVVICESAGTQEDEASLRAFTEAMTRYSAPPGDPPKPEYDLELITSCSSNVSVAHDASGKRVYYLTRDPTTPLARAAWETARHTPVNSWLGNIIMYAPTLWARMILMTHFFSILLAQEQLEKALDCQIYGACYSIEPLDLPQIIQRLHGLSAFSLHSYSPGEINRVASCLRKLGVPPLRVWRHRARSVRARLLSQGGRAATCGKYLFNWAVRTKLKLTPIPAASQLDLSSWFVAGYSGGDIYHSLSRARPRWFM

SMILES | IC50 (HCV NS5B) [nM] | EC50 (HCV replicon cells) [nM]
COc1ccc2c(c1)C=C(c1c(C(=O)N3C4CCC3CN(C)C4)cnn1C)Cn1c-2c(C2CCCCC2)c2ccc(C(=O)NS(=O)(=O)C3CC3)cc21 | 1 to 500 | 1 to 500
COc1ccc2c(c1)C=C(c1c(C(=O)N3C4CCC3CN(C)C4)cnn1C)Cn1c-2c(C2CCCCC2)c2ccc(C(=O)NS(=O)(=O)N3CCCC3)cc21 | 1 to 500 | 1 to 500
COc1ccc2c(c1)C=C(c1c(C(=O)N3C4CCCC3COC4)cnn1C)Cn1c-2c(C2CCCCC2)c2ccc(C(=O)NS(=O)(=O)C3CCCC3)cc21 | 1 to 500 | 1 to 500
COc1ccc2c(c1)C=C(c1c(C(=O)N3C4COCC3COC4)cnn1C)Cn1c-2c(C2CCCCC2)c2ccc(C(=O)NS(=O)(=O)C3CCC3)cc21 | 1 to 500 | 1 to 500
COc1ccc2c(c1)C=C(c1sccc1C(=O)N1C3CCC1CN(C)C3)Cn1c-2c(C2CCCCC2)c2ccc(C(=O)NS(=O)(=O)C(C)C)cc21 | 1 to 500 | 1 to 500
COc1ccc2c(c1)C=C(c1c(C(=O)N3C4CCC3CN(C)C4)cnn1C(C)C)Cn1c-2c(C2CCCCC2)c2ccc(C(=O)NS(=O)(=O)C(C)C)cc21 | 1 to 500 | 1 to 500
COc1ccc2c(c1)C=C(c1c(C(=O)N3CC4CCC(C3)N4C)cnn1C(C)C)Cn1c-2c(C2CCCCC2)c2ccc(C(=O)NS(=O)(=O)C(C)C)cc21 | 1 to 500 | 1 to 500
COc1ccc2c(c1)C=C(c1c(C(=O)N3C4COCC3COC4)cnn1C(C)C)Cn1c-2c(C2CCCCC2)c2ccc(C(=O)NS(=O)(=O)C(C)C)cc21 | 1 to 500 | 1 to 500
COc1ccc2c(c1)C=C(c1c(C(=O)N3C4COCC3COC4)cnn1C(C)C)Cn1c-2c(C2CCCCC2)c2ccc(C(=O)NS(=O)(=O)CC(C)C)cc21 | 1 to 500 | 1 to 500
COc1ccc2c(c1)C=C(c1c(C(=O)N3[C@@H]4CC[C@H]3CN(C)C4)cnn1C(C)C)Cn1c-2c(C2CCCCC2)c2ccc(C(=O)NS(=O)(=O)CC(C)C)cc21 | 1 to 500 | 1 to 500
COc1ccc2c(c1)C=C(c1c(C(=O)N3C[C@H]4CC[C@@H](C3)N4C)cnn1C(C)C)Cn1c-2c(C2CCCCC2)c2ccc(C(=O)NS(=O)(=O)CC(C)C)cc21 | 1 to 500 | 1 to 500
COc1ccc2c(c1)C=C(c1c(C(=O)N3[C@@H]4CC[C@H]3C[C@@](C)(O)C4)cnn1C(C)C)Cn1c-2c(C2CCCCC2)c2ccc(C(=O)NS(=O)(=O)C(C)C)cc21 | 1 to 500 | 1 to 500
COc1ccc2c(c1)C=C(c1c(C(=O)N3C4C=C(C)CC3CC4)cnn1C(C)C)Cn1c-2c(C2CCCCC2)c2ccc(C(=O)NS(=O)(=O)C(C)C)cc21 (stereo not shown) | 1 to 500 | 1 to 500
COc1ccc2c(c1)C=C(c1c(C(=O)N3[C@@H]4CC[C@H]3C[C@@](C)(O)C4)cnn1C(C)C)Cn1c-2c(C2CCCCC2)c2ccc(C(=O)NS(=O)(=O)CC(C)C)cc21 | 1 to 500 | 1 to 500
COc1ccc2c(c1)C=C(c1c(C(=O)N3C4C=C(C)CC3CC4)cnn1C(C)C)Cn1c-2c(C2CCCCC2)c2ccc(C(=O)NS(=O)(=O)CC(C)C)cc21 (stereo not shown) | 1 to 500 | 1 to 500
COc1ccc2c(c1)C=C(c1c(C(=O)N3C4CCC3CN(C)C4)c(C)nn1C)Cn1c-2c(C2CCCCC2)c2ccc(C(=O)NS(=O)(=O)C(C)C)cc21 | 1 to 500 | 1 to 500
COc1ccc2c(c1)C=C(c1c(C(=O)N3C4CCC3CN(C)C4)ccn1C(C)C)Cn1c-2c(C2CCCCC2)c2ccc(C(=O)NS(=O)(=O)C(C)C)cc21 | 1 to 500 | 1 to 500
COc1ccc2c(c1)C=C(c1c(C(=O)N3C4CCCC3COC4)cnn1CC(F)(F)F)Cn1c-2c(C2CCCCC2)c2ccc(C(=O)NS(=O)(=O)C(C)C)cc21 | 1 to 500 | 1 to 500
COc1ccc2c(c1)C=C(c1c(C(=O)N3C4CCC3CN(C)C4)cnn1CC(F)(F)F)Cn1c-2c(C2CCCCC2)c2ccc(C(=O)NS(=O)(=O)C(C)C)cc21 | 1 to 500 | 1 to 500
COc1ccc2c(c1)C=C(c1c(C(=O)N3CC4CCC(C3)N4C)cnn1CC(F)(F)F)Cn1c-2c(C2CCCCC2)c2ccc(C(=O)NS(=O)(=O)C(C)C)cc21 | 1 to 500 | 1 to 500
